Source: patent US20040166151A1, “Lipid-based drug delivery systems containing phospholipase A2 degradable lipid derivatives and the therapeutic uses thereof” (priority 2000, published 2004)

Key:
mice = assay: In vivo hemolysis assay; conditions: i.v., 50 mg/kg
Method: Groups of mice (n=5/group; weight 18-22 g) were treated i.v. with buffer (PBS), ET-18-OCH3 (50 mg/kg), and liposomes composed of 1-O-DPPC with 5 mol % 1-O-DPPE-PEG2000 (68.7 and 137.5 mg/kg). 30 min after injection, 100 μl blood was collected into heparinised tubes directly from decapitated, CO2-anesthetised mice. The blood was centrifuged at 500×G for 10 min, and plasma was removed and stored at −20° C. until analysed.
The degree of hemolysis was measured by absorbance at 550 nm using a Perkin-Elmer 320 scanning spectrophotometer. 25 μl plasma was mixed with 2,5 ml PBS or 2.5 ml 10% triton X-100. 100 percent hemolysis was defined as the maximum amount of hemolysis obtained from the plasma of PBS treated mice mixed with 10% Triton X-100 and 0 percent as plasma from PBS treated mice mixed with PBS.

[1] = system: human red blood cells (RBC); assay: Hemolysis assay; conditions: low concentrations, 37° C., 20 hours
Method: Briefly, each sample was serially diluted with phosphate buffered saline (PBS), and 0.5 ml of each dilute suspension was mixed with 0.5 ml washed human red blood cells (RBC) [4% in PBS (v/v)]. Sample and standard were placed in a 37° C. incubator and agitated for 20 hours. Tubes were centrifuged at low speed (2000×G) for 10 minutes and 200 μl of the supernatant was quantitated by absorbance at 550 nm. 100 percent hemolysis was defined as the maximum amount of hemolysis obtained from the detergent Triton X-100.
1-O-octadecyl-2-O-methyl-sn-glycero-3-phosphocholine (ET-18-OCH3) in PBS was included in the assay as a reference.
Briefly, each sample was serially diluted with PBS, and 0.5 ml of each dilute suspension of 1-O-DPPC liposomes were mixed with 0.5 ml washed human red blood cells (RBC) [4% in PBS (v/v)]. For controls, 0.5 ml of the red blood cell suspension was mixed with either 0.5 ml buffer solution (negative hemolysis control) or 0.5 ml water (positive hemolysis control). Samples and standard were placed in a 37° C. incubator and agitated for 20 hours. Tubes were centrifuged at low speed (2000×G) for 10 minutes to form RBCs pellets. 200 μl of the supernatant was quantitated by absorbance at 550 nm using a Perkin-Elmer 320 scanning spectrophotometer. 100 percent hemolysis was defined as the maximum amount of hemolysis obtained from the detergent Triton X-100.

extracellular PLA2 = target: T1, extracellular PLA2 (Agkistrodon piscivorus piscivorus, UniProt P51972); assay: Effect of cholesterol content of liposomes on extracellular PLA2 activity; type: biochemical
T1 construct: Purified snake venom PLA2 (Agkistrodon piscivorus piscivorus) was a generous gift; tissue gift from dr; R. L. Biltonen; host or cells: snake venom of Agkistrodon piscivorus piscivorus
T1 sequence (P51972 1-123): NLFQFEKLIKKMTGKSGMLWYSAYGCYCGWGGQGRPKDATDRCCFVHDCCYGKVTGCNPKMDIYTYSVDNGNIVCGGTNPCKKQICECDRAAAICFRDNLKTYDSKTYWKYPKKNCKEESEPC
Source text: Short-chain phospholipids, such as didecanoyl phosphatidylcholine (DCPC), activate extracellular PLA2. The effect on calcein permeation across the target membranes induced by incorporation of a small amount of DCPC into the carrier PEG-liposomes is also shown in FIG. 12.a. […] In contrast we find that a small amount of cholesterol (≈3 mol %) activates extracellular PLA2. These significant findings are of particular interest since the blood circulation time of PEG-liposomes has been reported to be almost the same without cholesterol as with large amounts of cholesterol.

[2] = Calcein release across target membrane on adding hydrolysis products in the absence of PLA2; conditions: 25 μM target membranes, 39° C.
Method: Total release after 20 min of the fluorescent model drug calcein across the target membrane as a function of adding increasing amounts of lyso-palmitoyl phospholipid and palmitic acid, separately, and in a 1:1 mixture. The concentration of the target membranes is 25 μM in a HEPES buffer with pH=7.5 at a temperature of 39° C.
The experimental model system consists of a polymer-coated liposome carrier and a model target membrane. The carrier is a 100 nm unilamellar liposome made of dipalmitoyl phosphatidylcholine lipids (DPPC) with 2.5 mol % lipopolymer of the type dipalmitoyl phosphatidylethanolamine (DPPE)-PEG2000. The target membrane is another liposome made of 1,2-O-dioctadecyl-sn-glycero-phosphatidylcholine (D-O-SPC) which is a phospholipid where the acyl linkages of the stearoyl chains are ether bonds. In contrast to DPPC, D-O-SPC is inert towards PLA2-catalysed hydrolysis thereby mimicking the stability of an intact target cell membrane toward degradation by its own enzymes. […] The permeation of calcein across the D-O-SPC target membrane is subsequently monitored by the increase in fluorescence. […]

With `CCCCCCCCCCCCCCCCCCOC[C@H](COP(=O)([O-])OCC[N+](C)(C)C)OC` [ET-18-OCH3] the “Survival (30 min), number of surviving mice” value (mice) was 0/5, the “mortality of treated mice” value (mice) was “died within the 30 minutes period” and the “hemolysis (FIG. 6)” value [1] was “significant degree of hemolysis”.

In the case of `CC(C)CCC[C@@H](C)[C@H]1CC[C@H]2[C@@H]3CC=C4C[C@@H](O)CC[C@]4(C)[C@H]3CC[C@]12C` [cholesterol], the “extracellular PLA2 activity” value (extracellular PLA2; ≈3 mol % cholesterol incorporated into liposomes) is reported as “activates” and the “extracellular PLA2 activity” value (extracellular PLA2; ≈20 mol % cholesterol incorporated into liposomes, data not shown) is reported as “deactivated”.

In the case of `CCCCCCCCCCCCCCCC(=O)O` [fatty acid, palmitic acid], the “rate of calcein release across the target membrane (FIG. 13)” value [2] is reported as “increased rate”.
